The record followed here is paper PMC3770053 (Biochemistry, 2013).

Holding throughout (test): stopped-flow fluorescence titration, T
Format in all cases: binding

The target in assay [1] is Pol I(KF) (Klenow fragment of E. coli DNA polymerase I), N-His6/D424A/L744C/C907S, termed WT (Escherichia coli, UniProt P00582, C907S/D424A/L744C/Y766F).
In assay [2] the target is Pol I(KF) (Klenow fragment of E. coli DNA polymerase I), N-His6/D424A/L744C/C907S, termed WT (Escherichia coli, UniProt P00582, C907S/D424A/L744C/Y766A).
Assay [3] concerns the target Pol I(KF) (Klenow fragment of E. coli DNA polymerase I), N-His6/D424A/L744C/C907S, termed WT (Escherichia coli, UniProt P00582, C907S/D424A/E710A/L744C).
Assay [4] deals with Pol I(KF) (Klenow fragment of E. coli DNA polymerase I), N-His6/D424A/L744C/C907S, termed WT (Escherichia coli, UniProt P00582, C907S/D424A/E710Q/L744C).
Assay [5] has as its target Pol I(KF) (Klenow fragment of E. coli DNA polymerase I), N-His6/D424A/L744C/C907S, termed WT (Escherichia coli, UniProt P00582, C907S/D424A/L744C).

Turning to `Nc1nc2c(ncn2[C@H]2C[C@H](O)[C@@H](COP(=O)(O)OP(=O)(O)OP(=O)(O)O)O2)c(=O)[nH]1` [dGTP], the Kd in assay [1] came to 5.9 ± 2.4 µM; in assay [2] it was 2.9 ± 2 µM; in assay [3] it was 46 ± 13 µM; in assay [4], 10 ± 1 µM.
As for `Nc1nc2c(ncn2[C@@H]2O[C@H](COP(=O)(O)OP(=O)(O)OP(=O)(O)O)[C@@H](O)[C@H]2O)c(=O)[nH]1` [rGTP], the results for the Kd in assay [1], in assay [2] and in assay [5] were 68 µM, 13 µM and 41 µM, respectively.

As a reminder, the Kd is the free concentration of one partner at which half of the binding sites on the other are occupied at equilibrium, for simple one-to-one binding. A lower Kd goes with a tighter complex.
